ChEMBL document CHEMBL1142622, “Inhibition of phospholipase cgamma1 and cancer cell proliferation by triterpene esters from Uncaria rhynchophylla” (J Nat Prod, 2000)
Converted amounts (≈) assume the structure as drawn.

What was measured:
[1] = biological target: T1, 1-phosphatidylinositol 4,5-bisphosphate phosphodiesterase gamma-1 (Homo sapiens, UniProt P19174); assay: Inhibition of PLCgamma1
T1 sequence (P19174 whole entry): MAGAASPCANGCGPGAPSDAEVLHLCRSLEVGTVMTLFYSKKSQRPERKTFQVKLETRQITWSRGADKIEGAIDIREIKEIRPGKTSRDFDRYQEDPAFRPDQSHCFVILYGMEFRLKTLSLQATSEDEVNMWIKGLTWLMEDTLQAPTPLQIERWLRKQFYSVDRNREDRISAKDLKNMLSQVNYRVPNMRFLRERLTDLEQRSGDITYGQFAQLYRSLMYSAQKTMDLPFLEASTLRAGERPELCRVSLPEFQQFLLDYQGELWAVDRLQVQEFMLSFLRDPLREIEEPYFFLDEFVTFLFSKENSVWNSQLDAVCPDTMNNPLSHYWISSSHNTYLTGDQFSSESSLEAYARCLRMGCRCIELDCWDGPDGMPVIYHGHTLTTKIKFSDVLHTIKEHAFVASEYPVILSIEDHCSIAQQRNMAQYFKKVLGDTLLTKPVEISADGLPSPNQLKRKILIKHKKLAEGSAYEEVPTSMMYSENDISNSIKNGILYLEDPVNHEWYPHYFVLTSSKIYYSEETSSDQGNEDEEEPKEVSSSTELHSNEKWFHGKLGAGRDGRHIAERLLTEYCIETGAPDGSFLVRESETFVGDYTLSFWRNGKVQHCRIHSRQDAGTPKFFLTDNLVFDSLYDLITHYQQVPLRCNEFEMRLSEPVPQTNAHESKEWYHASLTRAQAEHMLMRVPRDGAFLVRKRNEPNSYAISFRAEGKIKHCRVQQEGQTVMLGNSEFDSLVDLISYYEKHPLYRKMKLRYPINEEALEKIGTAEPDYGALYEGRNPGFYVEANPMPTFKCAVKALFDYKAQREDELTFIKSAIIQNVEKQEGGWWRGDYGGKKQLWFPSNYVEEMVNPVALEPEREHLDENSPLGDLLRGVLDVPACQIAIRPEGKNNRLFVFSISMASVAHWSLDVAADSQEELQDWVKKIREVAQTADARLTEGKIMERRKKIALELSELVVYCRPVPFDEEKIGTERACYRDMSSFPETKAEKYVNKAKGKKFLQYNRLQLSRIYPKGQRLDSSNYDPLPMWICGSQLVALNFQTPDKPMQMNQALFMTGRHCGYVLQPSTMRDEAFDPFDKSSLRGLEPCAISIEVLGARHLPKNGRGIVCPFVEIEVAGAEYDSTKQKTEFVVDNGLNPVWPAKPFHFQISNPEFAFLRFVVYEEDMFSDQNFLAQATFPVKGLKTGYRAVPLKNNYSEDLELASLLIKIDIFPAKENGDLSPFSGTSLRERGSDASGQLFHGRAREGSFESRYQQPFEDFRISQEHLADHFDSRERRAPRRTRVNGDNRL

NIH3T3 = assay: Inhibition of PDGF-induced phosphotidyl inositol turnover in PLCgamma1 expressing mouse NIH3T3 cells; type: functional, cell-based
HCT-15 = assay: Antiproliferative activity against PLCgamma1 expressing human HCT15 cells; type: functional, cell-based
HT1197 = assay: Antiproliferative activity against PLCgamma1 expressing human HT1197 cells; type: functional, cell-based

Row | SMILES | IC50 [1] [µM] | IC50 (NIH3T3) [µM] | IC50 (HCT-15) [µg/mL] | IC50 (HT1197) [µg/mL]
1 | O=c1cc(-c2ccc(O)c(-c3c(O)cc(O)c4c(=O)cc(-c5ccc(O)cc5)oc34)c2)oc2cc(O)cc(O)c12 [AMENTOFLAVONE] | 29 | 9.2 |  | 
2 | COc1cccc2c1C(=O)c1c(O)c3c(c(O)c1C2=O)C[C@@](O)(C(=O)CO)C[C@@H]3O[C@H]1C[C@H](N)[C@H](O)[C@H](C)O1 [DOXORUBICIN] |  |  | 13.4 (≈ 24.7 µM) | 0.03 (≈ 0.0552 µM)
